Results on 2 molecules are retold here after patent publication US8669288B2, “Lysine salts of 4-((phenoxyalkyl)thio)-phenoxyacetic acid derivatives” (Janssen Pharmaceutica N.V., priority 2005, dated 2014).

SMILES strings stand for the structures. Where a name gives a salt, the structure may show the parent alone. A value given as a limit tells only on which side of the number the result lay.

Common to all, as to type: physicochemical
One data set can be described thus: pKa.
Data set [1] is described as follows: Solubility in distilled water.
A short description of data set [2]: DVS isotherm, cycling humidity 0-90% RH. The note with it: 25° C., 0-90% RH in 10% RH increments. The method, then:
The non-hydrate, L-lysine salt of the compound of formula (Ia) was subjected to cycling humidity conditions, with results as shown in FIG. 3. More specifically, the sample was analyzed through a full cycle in step mode at 25° C., from 0-90% RH (relative humidity) in 10% RH increments. The equilibration conditions set were as follows: dm/dt of 0.0007; dm/dt window of 5 mins; minimum and maximum stages of 15 and 360 minutes. Data was collected in 1 minute intervals. Nitrogen was used as the carrier gas.

Molecule `CCO[C@H](COc1ccc(C(F)(F)F)cc1)CSc1ccc(OCC(=O)O)c(C)c1` [Compound of formula (la), (R)-{4-[2-Ethoxy-3-(4-trifluoromethyl-phenoxy)-propylsulfanyl]-2-methyl-phenoxy}-acetic acid] displayed a pKa in the data set “pKa” of 3.63. Besides, the solubility is around 1000 µg/mL in data set [1] (pH 7.4, water) and below 2 µg/mL in data set [1] (water, pH 2.0).

Consider `CCO[C@H](COc1ccc(C(F)(F)F)cc1)CSc1ccc(OCC(=O)O)c(C)c1` [{4-[2-Ethoxy-3-(4-trifluoromethyl-phenoxy)-propylsulfanyl]-2-methyl-phenoxy}-acetic acid L-Lysine non-hydrate salt], for which the “Form conversion under cycling humidity conditions” value in data set [2] was “reversibly converts to the corresponding di-hydrate form by absorbing water”.
